This assay concerns MaPylRS. The experiment in a line: Intact tRNA mass spectrometry: acylation of Ma-tRNA^Pyl by MaPylRS. Format: biochemical, Methanomethylophilus alvus. The settings on record: MaPylRS 2.5 μM, Ma-tRNA^Pyl 25 μM, 37° C., 2 h; average of 3 technical replicates.

The source of these data is patent US20250027130A1, “Nucleic Acid Synthesis and Sequencing Using Tethered Nucleoside Triphosphates” (The Regents of the University of California, priority 2022, published 2025).

Take `CC(C)(C)OC(=O)NCCCCC(C(=O)O)C(=O)O` [Substrate 16]: the “Yield of diacylated Ma-tRNA^Pyl” value is on record as 0.0% and the “Yield of monoacylated Ma-tRNA^Pyl” value came out at 0.25%.
